Results taken from ChEMBL document CHEMBL6109078, “Pyrylium derivatives as outer membrane permeabilizers against MDR gram-negative bacteria via multi-target mode of action” (Eur J Med Chem, 2025).
The source made the active and inactive calls. The rule behind the calls is not given here.

Tests used:
Acinetobacter baumannii [1] = assay: Antibacterial activity against Acinetobacter baumannii ATCC 19606 assessed as inhibition of bacterial growth by CLSI protocol based method; assay type: functional
Klebsiella pneumoniae [2] = assay: Antibacterial activity against Klebsiella pneumoniae BAA ATCC 1706 assessed as inhibition of bacterial growth by CLSI protocol based method; assay type: functional
Pseudomonas aeruginosa [3] = assay: Antibacterial activity Pseudomonas aeruginosa PAO1 assessed as inhibition of bacterial growth by CLSI protocol based method; assay type: functional
Acinetobacter baumannii [4] = assay: Antibacterial activity against multi-drug resistant Acinetobacter baumannii clinical isolate 2 assessed as inhibition of bacterial growth by CLSI protocol based method; assay type: functional
Acinetobacter baumannii [5] = assay: Antibacterial activity against multi-drug resistant Acinetobacter baumannii clinical isolate 4 assessed as inhibition of bacterial growth by CLSI protocol based method; assay type: functional
Acinetobacter baumannii [6] = assay: Antibacterial activity against multi-drug resistant Acinetobacter baumannii clinical isolate 51 assessed as inhibition of bacterial growth by CLSI protocol based method; assay type: functional
Acinetobacter baumannii [7] = assay: Antibacterial activity against multi-drug resistant Acinetobacter baumannii clinical isolate 1 assessed as inhibition of bacterial growth by CLSI protocol based method; assay type: functional
Acinetobacter baumannii [8] = assay: Antibacterial activity against multi-drug resistant Acinetobacter baumannii clinical isolate 43 assessed as inhibition of bacterial growth by CLSI protocol based method; assay type: functional
Escherichia coli [9] = assay: Antibacterial activity against multi-drug resistant Escherichia coli clinical isolate 1 assessed as inhibition of bacterial growth by CLSI protocol based method; assay type: functional
Acinetobacter baumannii [10] = assay: Synergistic antibacterial activity against multi-drug resistant Acinetobacter baumannii clinical isolate 5 assessed as inhibition of bacterial growth by measuring polymyxin B MIC by checkerboard assay; assay type: functional
Acinetobacter baumannii [11] = assay: Synergistic antibacterial activity against multi-drug resistant Acinetobacter baumannii clinical isolate 14 assessed as inhibition of bacterial growth by measuring polymyxin B MIC by checkerboard assay; assay type: functional
Acinetobacter baumannii [12] = assay: Synergistic antibacterial activity against multi-drug resistant Acinetobacter baumannii clinical isolate 1 assessed as inhibition of bacterial growth by measuring polymyxin B MIC by checkerboard assay; assay type: functional
Acinetobacter baumannii [13] = assay: Synergistic antibacterial activity against multi-drug resistant Acinetobacter baumannii clinical isolate 43 assessed as inhibition of bacterial growth by measuring polymyxin B MIC by checkerboard assay; assay type: functional
Escherichia coli [14] = assay: Synergistic antibacterial activity against Escherichia coli ATCC 35218 assessed as inhibition of bacterial growth by measuring polymyxin B MIC by checkerboard assay; assay type: functional
Escherichia coli [15] = assay: Synergistic antibacterial activity against multi-drug resistant Escherichia coli clinical isolate 1 assessed as inhibition of bacterial growth by measuring polymyxin B MIC by checkerboard assay; assay type: functional
Acinetobacter baumannii [16] = assay: Synergistic antibacterial activity against Acinetobacter baumannii ATCC 19606 assessed as inhibition of bacterial growth in presence of polymyxin B by checkerboard assay; assay type: functional
Acinetobacter baumannii [17] = assay: Synergistic antibacterial activity against multi-drug resistant Acinetobacter baumannii clinical isolate 14 assessed as inhibition of bacterial growth in presence of polymyxin B by checkerboard assay; assay type: functional
Acinetobacter baumannii [18] = assay: Synergistic antibacterial activity against multi-drug resistant Acinetobacter baumannii clinical isolate 1 assessed as inhibition of bacterial growth in presence of polymyxin B by checkerboard assay; assay type: functional
Acinetobacter baumannii [19] = assay: Synergistic antibacterial activity against multi-drug resistant Acinetobacter baumannii clinical isolate 43 assessed as inhibition of bacterial growth in presence of polymyxin B by checkerboard assay; assay type: functional
Escherichia coli [20] = assay: Synergistic antibacterial activity against Escherichia coli ATCC 25922 assessed as inhibition of bacterial growth in presence of polymyxin B by checkerboard assay; assay type: functional
Escherichia coli [21] = assay: Synergistic antibacterial activity against Escherichia coli ATCC 35218 assessed as inhibition of bacterial growth in presence of polymyxin B by checkerboard assay; assay type: functional
Escherichia coli [22] = assay: Synergistic antibacterial activity against multi-drug resistant Escherichia coli clinical isolate 1 assessed as inhibition of bacterial growth in presence of polymyxin B by checkerboard assay; assay type: functional
Escherichia coli [23] = assay: Synergistic antibacterial activity against Escherichia coli CG-4 expressing MCR-1 and NDM-1 assessed as inhibition of bacterial growth in presence of polymyxin B by checkerboard assay; assay type: functional
Acinetobacter baumannii [24] = assay: Synergistic antibacterial activity against multi-drug resistant Acinetobacter baumannii clinical isolate 43 assessed as fractional inhibitory concentration index in presence of polymyxin B by checkerboard assay; assay type: functional
Escherichia coli [25] = assay: Synergistic antibacterial activity against Escherichia coli ATCC 25922 assessed as fractional inhibitory concentration index in presence of polymyxin B by checkerboard assay; assay type: functional
Escherichia coli [26] = assay: Synergistic antibacterial activity against multi-drug resistant Escherichia coli clinical isolate 1 assessed as fractional inhibitory concentration index in presence of polymyxin B by checkerboard assay; assay type: functional
Escherichia coli [27] = assay: Synergistic antibacterial activity against Escherichia coli CG-4 expressing MCR-1 and NDM-1 assessed as fractional inhibitory concentration index in presence of polymyxin B by checkerboard assay; assay type: functional
Acinetobacter baumannii [28] = assay: Synergistic antibacterial activity against Acinetobacter baumannii ATCC 19606 assessed as fractional inhibitory concentration index in presence of amikacin by checkerboard assay; assay type: functional
Acinetobacter baumannii [29] = assay: Synergistic antibacterial activity against multi-drug resistant Acinetobacter baumannii clinical isolate 5 assessed as fractional inhibitory concentration index in presence of amikacin by checkerboard assay; assay type: functional
Acinetobacter baumannii [30] = assay: Synergistic antibacterial activity against multi-drug resistant Acinetobacter baumannii clinical isolate 14 assessed as fractional inhibitory concentration index in presence of amikacin by checkerboard assay; assay type: functional
Acinetobacter baumannii [31] = assay: Synergistic antibacterial activity against multi-drug resistant Acinetobacter baumannii clinical isolate 1 assessed as fractional inhibitory concentration index in presence of gentamycin by checkerboard assay; assay type: functional
Acinetobacter baumannii [32] = assay: Synergistic antibacterial activity against multi-drug resistant Acinetobacter baumannii clinical isolate 43 assessed as fractional inhibitory concentration index in presence of amikacin by checkerboard assay; assay type: functional
Acinetobacter baumannii [33] = assay: Synergistic antibacterial activity against multi-drug resistant Acinetobacter baumannii clinical isolate 43 assessed as fractional inhibitory concentration index in presence of gentamycin by checkerboard assay; assay type: functional
Escherichia coli [34] = assay: Synergistic antibacterial activity against Escherichia coli ATCC 25922 assessed as fractional inhibitory concentration index in presence of amikacin by checkerboard assay; assay type: functional
Escherichia coli [35] = assay: Synergistic antibacterial activity against Escherichia coli ATCC 35218 assessed as fractional inhibitory concentration index in presence of amikacin by checkerboard assay; assay type: functional
Escherichia coli [36] = assay: Synergistic antibacterial activity against Escherichia coli ATCC 35218 assessed as fractional inhibitory concentration index in presence of gentamycin by checkerboard assay; assay type: functional
Escherichia coli [37] = assay: Synergistic antibacterial activity against multi-drug resistant Escherichia coli clinical isolate 1 assessed as fractional inhibitory concentration index in presence of amikacin by checkerboard assay; assay type: functional
Klebsiella pneumoniae [38] = assay: Synergistic antibacterial activity against Klebsiella pneumoniae assessed as inhibition of bacterial growth in presence of polymyxin B by checkerboard assay; assay type: functional, organism-based
Acinetobacter baumannii [39] = assay: Antibacterial activity against Acinetobacter baumannii ATCC 19606 assessed as inhibition of bacterial growth by measuring decrease in bacterial count at 6.25 to 50 microg/ml measured after 12 hrs by time-kill kinetics analysis; assay type: functional; conditions: dose 6.25-50 µg/ml
Pseudomonas aeruginosa [40] = assay: Synergistic antibacterial activity against Pseudomonas aeruginosa assessed as inhibition of bacterial growth in presence of polymyxin B by checkerboard assay; assay type: functional, organism-based
Pseudomonas aeruginosa [41] = assay: Synergistic antibacterial activity against Pseudomonas aeruginosa assessed as inhibition of bacterial growth in presence of aminoglycoside by checkerboard assay; assay type: functional, organism-based
Bacteria = assay: Binding affinity to His-tagged LptA (unknown origin) extracted from Escherichia coli BL21 (DE3) cells by BLI analysis

CCN(CC)c1ccc(/C=C/c2cc(C(C)(C)C)[o+]c(C(C)(C)C)c2)cc1.O=S(=O)([O-])C(F)(F)F
MIC (Acinetobacter baumannii [1]): 12.5 mg/L | MIC (Klebsiella pneumoniae [2]): 12.5 mg/L | MIC (Pseudomonas aeruginosa [3]): > 100 mg/L | MIC (Acinetobacter baumannii [4]): 6.25 mg/L | MIC (Acinetobacter baumannii [5]): 12.5 mg/L | MIC (Acinetobacter baumannii [6]): 12.5 mg/L | MIC (Acinetobacter baumannii [7]): 25 mg/L | MIC (Acinetobacter baumannii [8]): 12.5 mg/L | MIC (Escherichia coli [9]): ≥ 100 mg/L | MIC (Acinetobacter baumannii [10]): 0.003 mg/L | MIC (Acinetobacter baumannii [11]): 0.006 mg/L | MIC (Acinetobacter baumannii [12]): 0.2 mg/L | MIC (Acinetobacter baumannii [13]): 1 10^-4 ug/ml | MIC (Escherichia coli [14]; Escherichia coli, ATCC 35218, read-out: MIC): 0.013 mg/L | MIC (Escherichia coli [15]): 0.2 mg/L | MIC (Acinetobacter baumannii [16]): 0.78 mg/L | MIC (Acinetobacter baumannii [17]): 1.56 mg/L | MIC (Acinetobacter baumannii [18]): 1.56 mg/L | MIC (Acinetobacter baumannii [19]): 6.25 mg/L | MIC (Escherichia coli [20]): 1.56 mg/L | MIC (Escherichia coli [21]): 1.56 mg/L | MIC (Escherichia coli [22]): 3.12 mg/L | MIC (Escherichia coli [23]): 3.13 mg/L | fractional inhibitory concentration index (FICI) (Acinetobacter baumannii [24]): 0.5 | fractional inhibitory concentration index (FICI) (Escherichia coli [25]): 0.266 | fractional inhibitory concentration index (FICI) (Escherichia coli [26]): 0.031 | fractional inhibitory concentration index (FICI) (Escherichia coli [27]): 0.375 | fractional inhibitory concentration index (FICI) (Acinetobacter baumannii [28]): 0.125 | fractional inhibitory concentration index (FICI) (Acinetobacter baumannii [29]): 0.125 | fractional inhibitory concentration index (FICI) (Acinetobacter baumannii [30]): 0.125 | fractional inhibitory concentration index (FICI) (Acinetobacter baumannii [31]): 0.125 | fractional inhibitory concentration index (FICI) (Acinetobacter baumannii [32]): 0.125 | fractional inhibitory concentration index (FICI) (Acinetobacter baumannii [33]): 0.125 | fractional inhibitory concentration index (FICI) (Escherichia coli [34]): 0.125 | fractional inhibitory concentration index (FICI) (Escherichia coli [35]): 0.125 | fractional inhibitory concentration index (FICI) (Escherichia coli [36]): 0.125 | fractional inhibitory concentration index (FICI) (Escherichia coli [37]): 0.125 | Activity (Klebsiella pneumoniae [38]): inactive | Activity (Acinetobacter baumannii [39]): <6 log10CFU/ml | Activity (Pseudomonas aeruginosa [40]): inactive | Activity (Pseudomonas aeruginosa [41]): inactive | Activity (Bacteria): Dose-dependent-effect

CC(C)(C)c1cc(/C=C/c2ccc(N3CCCC3)cc2)cc(C(C)(C)C)[o+]1.O=S(=O)([O-])C(F)(F)F
MIC (Acinetobacter baumannii [1]): 12.5 mg/L | MIC (Klebsiella pneumoniae [2]): > 100 mg/L | MIC (Pseudomonas aeruginosa [3]): > 100 mg/L | MIC (Acinetobacter baumannii [4]): 6.25 mg/L | MIC (Acinetobacter baumannii [5]): 12.5 mg/L | MIC (Acinetobacter baumannii [6]): 12.5 mg/L | MIC (Acinetobacter baumannii [7]): 12.5 mg/L | MIC (Acinetobacter baumannii [8]): 12.5 mg/L | MIC (Escherichia coli [9]): ≥ 100 mg/L | MIC (Acinetobacter baumannii [10]): 0.003 mg/L | MIC (Acinetobacter baumannii [11]): 0.024 mg/L | MIC (Acinetobacter baumannii [12]): 1.56 mg/L | MIC (Acinetobacter baumannii [13]): 1 10^-4 ug/ml | MIC (Escherichia coli [14]): 63 10^-4 ug/ml | MIC (Escherichia coli [15]): 0.39 mg/L | MIC (Acinetobacter baumannii [16]): 1.56 mg/L | MIC (Acinetobacter baumannii [17]): 1.56 mg/L | MIC (Acinetobacter baumannii [18]): 3.12 mg/L | MIC (Acinetobacter baumannii [19]): 6.25 mg/L | MIC (Escherichia coli [20]): 1.56 mg/L | MIC (Escherichia coli [21]): 3.13 mg/L | MIC (Escherichia coli [22]): 6.25 mg/L | MIC (Escherichia coli [23]): 0.78 mg/L | fractional inhibitory concentration index (FICI) (Acinetobacter baumannii [24]): 0.5 | fractional inhibitory concentration index (FICI) (Escherichia coli [25]): 0.156 | fractional inhibitory concentration index (FICI) (Escherichia coli [26]): 0.063 | fractional inhibitory concentration index (FICI) (Escherichia coli [27]): 0.188 | fractional inhibitory concentration index (FICI) (Acinetobacter baumannii [28]): 0.125 | fractional inhibitory concentration index (FICI) (Acinetobacter baumannii [29]): 0.125 | fractional inhibitory concentration index (FICI) (Acinetobacter baumannii [30]): 0.125 | fractional inhibitory concentration index (FICI) (Acinetobacter baumannii [31]): 0.125 | fractional inhibitory concentration index (FICI) (Acinetobacter baumannii [32]): 0.125 | fractional inhibitory concentration index (FICI) (Acinetobacter baumannii [33]): 0.125 | fractional inhibitory concentration index (FICI) (Escherichia coli [34]): 0.125 | fractional inhibitory concentration index (FICI) (Escherichia coli [35]): 0.125 | fractional inhibitory concentration index (FICI) (Escherichia coli [36]): 0.125 | fractional inhibitory concentration index (FICI) (Escherichia coli [37]): 0.125 | Activity (Klebsiella pneumoniae [38]): inactive | Activity (Acinetobacter baumannii [39]): <6 log10CFU/ml | Activity (Pseudomonas aeruginosa [40]): inactive | Activity (Pseudomonas aeruginosa [41]): inactive | Activity (Bacteria): Dose-dependent-effect
